Experimental data reported in US10221173B2, “Chemical compounds” (AstraZeneca AB, priority 2017, dated 2019).
In brackets after ≈: the same amount, converted by molar mass.

Assays:
[1] = target: recombinant human Estrogen Receptor alpha ligand binding domain (ER alpha-LBD (GST)) (Homo sapiens (Human), UniProt P03372); test: ERα binding assay (LanthaScreen TR-FRET competition)
[2] = target: Estrogen Receptor (ERα) in MCF-7 cells (Homo sapiens (Human), UniProt P03372); test: MCF-7 ER down-regulation assay (immuno-fluorescence); type: cell-based; conditions: for % downregulation (in brackets): maximum downregulation
[3] = Log D (shake flask, 1-octanol/aqueous buffer); type: physicochemical; conditions: 1-octanol/aqueous buffer, pH 7.4, pH 7.4
[4] = Thermodynamic solubility (shake-flask); type: physicochemical; conditions: aqueous phosphate buffer, 25 °C, pH 7.4, aqueous buffer, thermodynamic from solid, phosphate buffer pH 7.4, 24 hours
[5] = target: hERG potassium channel (Homo sapiens (Human), UniProt Q12809)
Method: The assay was conducted as follows with all reagents used at room temperature unless otherwise stated.
All compounds were acoustically dispensed in quadruplicate using a Labcyte Echo.
Calculation of results is performed using APC package within Genedata. For the routine normalization of well data with Neutral and Inhibitor control well groups as reference, GeneData Assay Analyzer uses the following equation to normalize the signal values to the desired signal range:
[formula] x is the measured raw signal value of a well is the median of the measured signal values for the Central Reference (Neutral) wells on a plate is the median of the measured signal values for the Scale Reference (Inhibitor) wells on a plate CR is the desired median normalized value for the Central Reference (Neutral) SR is the desired median normalized value for the Scale Reference (Inhibitor)

[6] = Human plasma protein binding (equilibrium dialysis); type: in vitro ADME

recombinant human Estrogen Receptor alpha ligand binding domain (ER alpha-LBD (GST)), sequence (P03372 307-554): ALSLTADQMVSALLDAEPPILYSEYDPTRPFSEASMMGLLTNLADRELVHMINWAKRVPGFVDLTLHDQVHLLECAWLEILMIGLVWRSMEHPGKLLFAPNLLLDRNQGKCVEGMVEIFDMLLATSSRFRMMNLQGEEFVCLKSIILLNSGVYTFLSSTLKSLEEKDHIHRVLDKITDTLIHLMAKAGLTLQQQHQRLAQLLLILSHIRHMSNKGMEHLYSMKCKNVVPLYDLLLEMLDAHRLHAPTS
hERG potassium channel, sequence (Q12809 whole entry): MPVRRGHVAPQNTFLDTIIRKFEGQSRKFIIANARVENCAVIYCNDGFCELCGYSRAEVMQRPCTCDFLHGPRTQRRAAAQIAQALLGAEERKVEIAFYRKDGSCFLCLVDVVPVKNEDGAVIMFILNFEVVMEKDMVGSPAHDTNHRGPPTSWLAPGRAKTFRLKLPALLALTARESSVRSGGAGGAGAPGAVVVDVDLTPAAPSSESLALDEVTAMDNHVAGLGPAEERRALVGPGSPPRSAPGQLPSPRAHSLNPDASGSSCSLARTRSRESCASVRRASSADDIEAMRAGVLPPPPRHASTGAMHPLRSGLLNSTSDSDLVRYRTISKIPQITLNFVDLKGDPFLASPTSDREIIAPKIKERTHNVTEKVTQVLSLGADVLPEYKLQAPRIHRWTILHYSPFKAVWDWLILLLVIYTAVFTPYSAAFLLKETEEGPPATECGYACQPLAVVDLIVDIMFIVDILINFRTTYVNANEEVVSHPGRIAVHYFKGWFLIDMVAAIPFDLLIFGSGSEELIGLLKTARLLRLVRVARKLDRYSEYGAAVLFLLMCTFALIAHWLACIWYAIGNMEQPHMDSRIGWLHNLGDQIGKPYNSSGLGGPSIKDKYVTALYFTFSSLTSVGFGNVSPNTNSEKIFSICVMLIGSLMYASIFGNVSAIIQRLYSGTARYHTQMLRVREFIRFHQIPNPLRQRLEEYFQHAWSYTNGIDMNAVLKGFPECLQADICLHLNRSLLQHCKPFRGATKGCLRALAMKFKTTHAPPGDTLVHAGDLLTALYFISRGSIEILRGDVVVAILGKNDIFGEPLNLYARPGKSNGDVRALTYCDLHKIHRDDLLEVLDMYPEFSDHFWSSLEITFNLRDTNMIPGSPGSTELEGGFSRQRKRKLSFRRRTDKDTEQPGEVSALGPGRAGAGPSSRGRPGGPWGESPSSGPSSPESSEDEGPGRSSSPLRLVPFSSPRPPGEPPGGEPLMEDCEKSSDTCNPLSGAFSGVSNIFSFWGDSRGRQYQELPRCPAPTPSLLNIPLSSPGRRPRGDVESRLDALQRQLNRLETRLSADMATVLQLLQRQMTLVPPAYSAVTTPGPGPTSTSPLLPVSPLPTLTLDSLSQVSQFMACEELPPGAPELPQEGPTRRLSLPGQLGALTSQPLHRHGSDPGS
Estrogen Receptor (ERα) in MCF-7 cells, sequence (P03372 whole entry): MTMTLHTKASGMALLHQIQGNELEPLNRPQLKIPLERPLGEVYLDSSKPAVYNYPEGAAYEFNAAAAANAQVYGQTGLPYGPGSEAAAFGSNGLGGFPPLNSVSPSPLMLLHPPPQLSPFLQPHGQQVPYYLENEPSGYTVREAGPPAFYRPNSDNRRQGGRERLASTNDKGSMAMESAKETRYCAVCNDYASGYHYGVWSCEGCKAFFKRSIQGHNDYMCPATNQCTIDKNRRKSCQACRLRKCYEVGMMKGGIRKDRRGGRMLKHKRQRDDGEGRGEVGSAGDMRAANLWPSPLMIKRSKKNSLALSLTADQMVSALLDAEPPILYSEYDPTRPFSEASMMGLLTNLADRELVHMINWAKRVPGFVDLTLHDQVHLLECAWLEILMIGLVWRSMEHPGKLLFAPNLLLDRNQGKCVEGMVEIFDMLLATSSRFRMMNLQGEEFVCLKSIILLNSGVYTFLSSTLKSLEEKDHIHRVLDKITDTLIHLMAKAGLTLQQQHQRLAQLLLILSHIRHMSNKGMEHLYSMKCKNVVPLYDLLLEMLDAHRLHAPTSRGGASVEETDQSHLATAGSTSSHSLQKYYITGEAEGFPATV

Structure (SMILES)	IC50 [1]	IC50 [2]	logD [3]	solubility at 24 h [4]	IC50 [5]	Human plasma protein binding (% free) [6]	% downregulation (in brackets) [2]
C[C@@H]1Cc2c([nH]c3ccccc23)[C@@H](c2nccc(OCCNCCCF)c2F)N1CC1(F)CC1 [Example 99, 3-fluoro-N-(2-((3-fluoro-2-((1S,3R)-2-((1-fluorocyclopropyl)methyl)-3-methyl-2,3,4,9-tetrahydro-1H-pyrido[3,4-b]indol-1-yl)pyridin-4-yl)oxy)ethyl)propan-1-amine]	3.4 nM	3.8 nM	2.1	285 µM (≈ 135 µg/mL)	20000 nM	–	–
COc1cnc(NCCNCCCF)cc1[C@@H]1c2[nH]c3ccccc3c2C[C@@H](C)N1CC(F)(F)F [Example 42]	3.7 nM	1.9 nM	2.9	349 µM (≈ 172 µg/mL)	7100 nM	–	–
C[C@@H]1Cc2c([nH]c3ccccc23)[C@@H](c2nccc(OCCNCCCF)c2Cl)N1CC(F)(F)F [Example 93, N-(2-((3-chloro-2-((1S,3R)-3-methyl-2-(2,2,2-trifluoroethyl)-2,3,4,9-tetrahydro-1H-pyrido[3,4-b]indol-1-yl)pyridin-4-yl)oxy)ethyl)-3-fluoropropan-1-amine]	–	–	4.3	0.5 µM (≈ 0.249 µg/mL)	6600 nM	0.34 % free	–
Cc1c(N(C)CCNCCCF)ccc(F)c1[C@@H]1c2[nH]c3ccccc3c2C[C@@H](C)N1C[C@H](C)C(=O)O [Example 136, (S)-3-((1R,3R)-1-(6-fluoro-3-((2-((3-fluoropropyl)amino)ethyl)(methyl)amino)-2-methylphenyl)-3-methyl-1,3,4,9-tetrahydro-2H-pyrido[3,4-b]indol-2-yl)-2-methylpropanoic acid]	2 nM	> 300 nM	1.1	328 µM (≈ 168 µg/mL)	–	2.1 % free	–
C[C@@H]1Cc2c([nH]c3ccccc23)[C@@H](c2cc(OCCNCCCF)ncc2F)N1CC(F)(F)F [Example 39, 3-fluoroN-(2-((5-fluoro-4-((1R,3R)-3-methyl-2-(2,2,2-trifluoroethyl)-2,3,4,9-tetrahydro-1H-pyrido[3,4-b]indol-1-yl)pyridin-2-yl)oxy)ethyl)propan-1-amine]	1.4 nM	0.26 nM	3.6	259 µM (≈ 125 µg/mL)	3900 nM	–	–
Cc1c(OCCN(C)CCCF)ccc(F)c1[C@@H]1c2[nH]c3ccccc3c2C[C@@H](C)N1CCC(=O)O [Example 163, 3-((1R,3R)-1-(6-fluoro-3-(2-((3-fluoropropyl)(methyl)amino)ethoxy)-2-methylphenyl)-3-methyl-1,3,4,9-tetrahydro-2H-pyrido[3,4-b]indol-2-yl)propanoic acid]	3.3 nM	1.2 nM	0.7	> 1000 µM	–	49 % free	–
C[C@@H]1Cc2c([nH]c3ccccc23)[C@@H](c2nccc(OCCNCCCF)c2F)N1CC(F)F [Example 98, N-(2-((2-((1S,3R)-2-(2,2-difluoroethyl)-3-methyl-2,3,4,9-tetrahydro-1H-pyrido[3,4-b]indol-1-yl)-3-fluoropyridin-4-yl)oxy)ethyl)-3-fluoropropan-1-amine]	1.9 nM	1.2 nM	2.3	594 µM (≈ 276 µg/mL)	> 32000 nM	–	–
COc1ccc(O[C@@H](C)CNCCCF)cc1[C@@H]1c2[nH]c3ccccc3c2C[C@@H](C)N1CC(F)(F)CO [Example 48, 2,2-difluoro-3-((1R,3R)-1-(5-(((S)-1-((3-fluoropropyl)amino)propan-2-yl)oxy)-2-methoxyphenyl)-3-methyl-1,3,4,9-tetrahydro-2H-pyrido[3,4-b]indol-2-yl)propan-1-ol]	4.4 nM	13 nM	2.8	307 µM (≈ 160 µg/mL)	2700 nM	–	–
COc1ccc(OCCNCCCF)nc1[C@@H]1c2[nH]c3ccccc3c2C[C@@H](C)N1CC(F)(F)F [Example 56, 3-fluoro-N-(2-((5-methoxy-6-((1S,3R)-3-methyl-2-(2,2,2-trifluoroethyl)-2,3,4,9-tetrahydro-1H-pyrido[3,4-b]indol-1-yl)pyridin-2-yl)oxy)ethyl)propan-1-amine]	39 nM	14 nM	2.7	445 µM (≈ 220 µg/mL)	–	4.6 % free	–
COc1ccc(OCCNCCC(F)(F)F)cc1[C@@H]1c2[nH]c3ccccc3c2C[C@@H](C)N1CC(F)(F)F [Example 72, 3,3,3-trifluoro-N-(2-(4-methoxy-3-((1R,3R)-3-methyl-2-(2,2,2-trifluoroethyl)-2,3,4,9-tetrahydro-1H-pyrido[3,4-b]indol-1-yl)phenoxy)ethyl)propan-1-amine]	1.4 nM	0.49 nM	5.2	< 0.2 µM	–	<0.1 % free	–
Cc1c(OCCNCCCF)ncnc1[C@@H]1c2[nH]c3ccccc3c2C[C@@H](C)N1CC(F)(F)CO [Example 115, 2,2-difluoro-3-((1S,3R)-1-(6-(2-((3-fluoropropyl)amino)ethoxy)-5-methylpyrimidin-4-yl)-3-methyl-1,3,4,9-tetrahydro-2H-pyrido[3,4-b]indol-2-yl)propan-1-ol]	1 nM	0.31 nM	2.1	983 µM (≈ 483 µg/mL)	–	11 % free	–
Cc1c(NCCNCCCF)ccc(F)c1[C@@H]1c2[nH]c3ccccc3c2C[C@@H](C)N1C[C@H](C)C(=O)O [Example 135, (S)-3-((1R,3R)-1-(6-fluoro-3-((2-((3-fluoropropyl)amino)ethyl)amino)-2-methylphenyl)-3-methyl-1,3,4,9-tetrahydro-2H-pyrido[3,4-b]indol-2-yl)-2-methylpropanoic acid]	160 nM	16 nM	0.5	> 1000 µM	–	32 % free	–
C[C@@H]1Cc2c([nH]c3ccccc23)[C@@H](c2c(Cl)ccc(OCCNCCCF)c2F)N1CC(F)(F)F [Example 78, N-(2-(4-chloro-2-fluoro-3-((1R,3R)-3-methyl-2-(2,2,2-trifluoroethyl)-2,3,4,9-tetrahydro-1H-pyrido[3,4-b]indol-1-yl)phenoxy)ethyl)-3-fluoropropan-1-amine]	1.3 nM	0.12 nM	4	26 µM (≈ 13.4 µg/mL)	–	0.21 % free	–
C[C@@H]1Cc2c([nH]c3ccccc23)[C@@H](c2nccc(OCCNCCCF)c2F)N1CC1(F)COC1 [Example 100, 3-fluoro-N-(2-((3-fluoro-2-((1S,3R)-2-((3-fluorooxetan-3-yl)methyl)-3-methyl-2,3,4,9-tetrahydro-1H-pyrido[3,4-b]indol-1-yl)pyridin-4-yl)oxy)ethyl)propan-1-amine]	5.2 nM	11 nM	2.5	> 1000 µM	19000 nM	–	–
CC(CN1[C@H](c2c(Cl)ccc(OCCNCCCF)c2Cl)c2[nH]c3ccc(F)cc3c2C[C@H]1C)C(=O)O (single isomer, unassigned) [Example 129]	8.9 nM	2.6 nM	1.5	953 µM (≈ 528 µg/mL)	–	23 % free	–
COc1ccc(OC[C@@H](C)NCCCF)cc1[C@@H]1c2[nH]c3ccccc3c2C[C@@H](C)N1CC(F)(F)CO [Example 50, 2,2-difIuoro-3-((1R,3R)-1-(5-((S)-2-((3-fluoropropyl)amino)propoxy)-2-methoxyphenyl)-3-methyl-1,3,4,9-tetrahydro-2H-pyrido[3,4-b]indol-2-yl)propan-1-ol]	1 nM	0.81 nM	2.8	461 µM (≈ 240 µg/mL)	–	7.1 % free	81%
COc1cc(F)c(OCCNCCCF)cc1[C@@H]1c2[nH]c3ccccc3c2C[C@@H](C)N1CC(F)(F)F [Example 28, 3-fluoro-N-(2-(2-fluoro-4-methoxy-5-((1R,3R)-3-methyl-2-(2,2,2-trifluoroethyl)-2,3,4,9-tetrahydro-1H-pyrido[3,4-b]indol-1-yl)phenoxy)ethyl)propan-1-amine]	2.8 nM	0.8 nM	3.8	40 µM (≈ 20.5 µg/mL)	–	1.2 % free	–
C[C@@H]1Cc2c([nH]c3ccccc23)[C@@H](c2cccc(OCCNCCCF)c2C#N)N1CC(F)(F)F [Example 69, 2-(2-((3-fluoropropyl)amino)ethoxy)-6-((1R,3R)-3-methyl-2-(2,2,2-trifluoroethyl)-2,3,4,9-tetrahydro-1H-pyrido[3,4-b]indol-1-yl)benzonitrile]	1.4 nM	1.5 nM	3.6	150 µM (≈ 73.3 µg/mL)	–	2.2 % free	–
C[C@@H]1Cc2c([nH]c3ccccc23)[C@@H](c2c(F)ccc(OCCN(C)CCCF)c2C(F)F)N1C[C@H](C)C(=O)O [Example 148, (S)-3-((1R,3R)-1-(2-(difluoromethyl)-6-fluoro-3-(2-((3-fluoropropyl)(methyl)amino)ethoxy)phenyl)-3-methyl-1,3,4,9-tetrahydro-2H-pyrido[3,4-b]indol-2-yl)-2-methylpropanoic acid]	1.1 nM	0.42 nM	1.5	788 µM (≈ 433 µg/mL)	–	10 % free	68%
Cc1c(OCCNCCCF)ccc(F)c1[C@@H]1c2[nH]c3ccccc3c2C[C@@H](C)N1CC(F)(F)C(=O)O [Example 118, 2,2-difluoro-3-((1R,3R)-1-(6-fluoro-3-(2-((3-fluoropropyl)amino)ethoxy)-2-methylphenyl)-3-methyl-1,3,4,9-tetrahydro-2H-pyrido[3,4-b]indol-2-yl)propanoic acid]	1.2 nM	5.5 nM	1.8	111 µM (≈ 57.9 µg/mL)	–	8.4 % free	–
